Laboratory results reported in patent US4198429A, “Esters of 5-methyl-10,11-dihydroprostaglandin-A1” (Hoechst Aktiengesellschaft, priority 1976, dated 1980).

Tests used:
Type in all cases: in vivo, Guinea pig
[1] = test system: bronchospasm caused by histamine; assay: Bronchospasmolytic activity, modified Konzett-Rossler test, histamine-induced bronchospasm; conditions: dose inhibiting effect of asthmogenic agent to 50% of initial value, male white Guinea pigs, anesthesized, V. jugularis
Procedure: (§1) To test the bronchospasmolytic activity of the compounds of the invention the following experiments were carried through:
(§2) TEST ACCORDING TO KONZETT-ROSSLER
(§3) To test the bronchospasmolytic activity the respiratory volume was measured by the method of Konzett-Rossler, according to which the air volume is measured which is taken up by the lung when the maximum inflation pressure is maintained constant and a constant volume is offered by high pressure respiration. Capacity variations in the respiratory tract result in an increase or decrease of the amount of air taken up by the lung under the given constant inflation pressure.
(§4) As test animals male white Guinea pigs having a weight of from 400 to 500 grams were used which had been anesthesized with 10 mg/kg i.p. of Evipan and 200 mg/kg i.p. of urethane. The substance to be tested was administered by means of a catheter in the V. jugularis. The positive pressure respiration depended on the normal respiratory volume of the test animal and could be adapted suitably and readily to the individual test animal. In the tests carried through the pressure indicated by Rosenthal and Dervinis of 80 mm H2 O was used. During the recovery phase after a bronchospastic reaction the flexible hose leading to the water manometer was clamped off for a short period of time in order to open deflating lung segments. The respiration frequency amounted to 64-72 per minute. The respiratory volume was measured according to the slightly modified Konzett-Rossler method wherein the piston recorder was replaced by a back-pressure tube according to Fleisch (type 0000). The occuring pressure difference was recorded by a difference pressure recorder of the type Statham PM 97 CT. To record the measured values a multi-channel recorder of Messrs. Hellige was used. The substance to be tested was used in the form of a standard solution in absolute alcohol. Directly prior to the start of the test it was diluted to the required final concentration with phosphate buffer (pH 7.4). The asthmogenic solution was prepared with double distilled water.
(§5) As asthmogenic agents histamine dihydrochloride, acetyl choline chloride and sertonine creatinine sulfate were used. To reduce the error resulting from individual differences in the bronchospasm intensity with a uniform dose of asthmogenic agent, the dosage unit was chosen such that an about 70 to 80% decrease of the absorption capacity of the lung was obtained. The experimental data were subjected to the regression analysis according to the probit transformation and the equation of the straight lines of regression y=a+b log x was calculated. In this manner the average inhibition dose (ID50 =the dose which inhibits the effect of the asthmogenic agent to 50% of the initial value) was found. Additionally, the results obtained by carrying out a simple variance analysis in the Duncan Test were compared with the control.

[2] = test system: spasm caused by acetylcholine; assay: Bronchospasmolytic activity, modified Konzett-Rossler test, acetylcholine-induced bronchospasm; conditions: dose inhibiting effect of asthmogenic agent to 50% of initial value, male white Guinea pigs, anesthesized, V. jugularis
Procedure: as §1, §2, §3, §4
as §5, with “Additionally, the results obtained by carrying out a simple variance analysis in the Duncan Test were compared with the control.” left out

bronchial muscles = assay: Bronchospasmolytic effect and its duration, modified Konzett-Rossler test; conditions: male white Guinea pigs, anesthesized; V. jugularis; asthmogenic agent not specified
Procedure: as §1, §2, §3, §4, §5

[3] = test system: spasm initiated by serotonin; assay: Bronchospasmolytic activity, modified Konzett-Rossler test, serotonin-induced bronchospasm; conditions: dose inhibiting effect of asthmogenic agent to 50% of initial value, male white Guinea pigs, anesthesized, V. jugularis
Procedure: as §1, §2, §3
as §4, with “The substance to be tested was used in the form of a standard solution in absolute alcohol. Directly prior to the start of the test it was diluted to the required final concentration with phosphate buffer (pH 7.4). The asthmogenic solution was prepared with double distilled water.” left out
As asthmogenic agents histamine dihydrochloride, acetyl choline chloride and sertonine creatinine sulfate were used. […] The experimental data were subjected to the regression analysis according to the probit transformation and the equation of the straight lines of regression y=a+b log x was calculated. […]

Row | Structure (SMILES) | ID50 values histamine [1] | ID50 values acetylcholine [2] | duration of effect (bronchial muscles) | ID50 values serotonin [3]
1 | CCCCCCOC(=O)CCCC(C)CC[C@H]1C(=O)CC[C@@H]1/C=C/[C@@H](O)CCCCC (stereo partly shown) [Example 1, 5-Methyl-10,11-dihydroproxtaglandin-A1 n-hexyl ester] | 1 ng/animal | 3 ng/animal | 30 min | 
2 | CCCCC[C@H](O)/C=C/[C@H]1CCC(=O)[C@@H]1CCC(C)CCCC(=O)OCCCC(C)(C)C (stereo partly shown) [Example 4] | 7 ng/animal |  | 20 to 25 min | 
3 | CCCCCCCCCCOC(=O)CCCC(C)CC[C@H]1C(=O)CC[C@@H]1/C=C/[C@@H](O)CCCCC (stereo partly shown) [Example 2, 5-Methyl-10,11-dihydroprostaglandin-A1 n-decyl ester] | 4.2 ng/animal |  | 30 to 45 min | 
4 | CCCCC[C@H](O)/C=C/[C@H]1CCC(=O)[C@@H]1CCC(C)CCCC(=O)O (stereo partly shown) [comp. II, 5-methyl-10,11-dihydroprostaglandin-A1] | 5 ng/animal | 10 ng/animal |  | 9 ng/animal
5 | CCCCC[C@H](O)/C=C/[C@H]1CCC(=O)[C@@H]1CCC(C)CCCC(=O)OCCOCC (stereo partly shown) [Example 7, 5-Methyl-10,11-dihydroprostaglandin-A1-2-ethoxyethyl ester] | 0.4 ng/animal | 0.88 ng/animal | 10 to 20 min | 0.86 ng/animal
6 | CCCCC[C@H](O)/C=C/[C@H]1CCC(=O)[C@@H]1CCC(C)CCCC(=O)OCCCc1ccccc1 (stereo partly shown) [Example 9, 5-Methyl-10,11-dihydroprostaglandin-A1-3-phenylpropyl ester] | 1 ng/animal |  | 25 min | 
7 | CCCCC[C@H](O)/C=C/[C@H]1CCC(=O)[C@@H]1CCC(C)CCCC(=O)OCCCC (stereo partly shown) [Example 3, 5-Methyl-10,11-dihydroprostaglandin-A1 n-butyl ester] | 0.63 ng/animal | 6.9 ng/animal | 15 to 20 min | 1.2 ng/animal
8 | CCCCC[C@H](O)/C=C/[C@H]1CCC(=O)[C@@H]1CCC(C)CCCC(=O)OC1CCCCC1 (stereo partly shown) [Example 6, 5-Methyl-10,11-dihydroprostaglandin-A1 cyclohexyl ester] | 7.5 ng/animal |  | 60 min | 
